The record followed here is patent publication US8163935B2, “Fused heterocyclic compounds” (Takeda Pharmaceutical Company Limited, priority 2005, dated 2012).

For data set [1], the target named is T1, human CRF receptor (Homo sapiens, UniProt P34998).
T1 construct: expressed in transfected cells; host or cells: CHO cells (membrane fraction)
T1 sequence (P34998 24-415): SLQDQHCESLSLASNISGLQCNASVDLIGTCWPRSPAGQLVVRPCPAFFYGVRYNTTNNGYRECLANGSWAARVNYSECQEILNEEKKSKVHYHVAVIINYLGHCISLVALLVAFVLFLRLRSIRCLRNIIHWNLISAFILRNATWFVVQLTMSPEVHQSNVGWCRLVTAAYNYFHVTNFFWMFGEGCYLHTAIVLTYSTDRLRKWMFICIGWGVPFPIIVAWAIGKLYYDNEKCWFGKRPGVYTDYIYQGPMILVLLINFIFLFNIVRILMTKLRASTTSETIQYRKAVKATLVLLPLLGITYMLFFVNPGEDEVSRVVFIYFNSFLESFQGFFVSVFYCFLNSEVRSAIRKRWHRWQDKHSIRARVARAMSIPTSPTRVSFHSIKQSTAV
The experiment in a line: Corticotropin-releasing factor (CRF) receptor binding experiment with 125I-CRF. As to conditions: human CRF receptor expressing CHO cellular membrane fraction; for inhibition at 1 µM: 1000 nM test compound, 50 pM 125I-CRF, read-out: Binding inhibitory rate (%) 1000 nM; for IC50: 125I-CRF, GraphPad Prism. On the procedure: A receptor binding experiment was carried out using a human CRF receptor expressing CHO cellular membrane fraction and ovine CRF, [^125I]-tyr^0 (^125I-CRF). 1000 nM of a test compound was incubated with 1 μg of human CRF receptor expressing CHO cellular membrane fraction and 50 pM of ^125I-CRF in a binding assay buffer (50 mM Tris-HCl, 5 mM EDTA, 10 mM MgCl2, 0.05% CHAPS, 0.1% BSA, 0.5 mM PMSF, 0.1 μg/ml pepstatin, 20 μg/ml leupeptin, pH 7.5). In addition, for measuring nonspecific binding (NSB), 0.1 μM unlabelled human Urocortin was incubated with 1 μg of human CRF receptor expressing CHO cellular membrane fraction and 50 pM of ^125I-CRF in a binding assay buffer. After a binding reaction was carried out at room temperature for 1.5 hour, the membrane was entrapped on a glass filter (UniFilter plate GF-C/Perkin Elmer) by suction filtration using a cell harvester (Perkin Elmer), and washed with ice-cooled 50 mM Tris-HCl (pH 7.5). After drying the glass filter, a liquid scintillation cocktail (Microscinti 0, Perkin Elmer) was added, and the radioactivity of ^125I-CRF remaining on a glass filter was measured using Topcount (Perkin Elmer).
(TB−SB)/(TB−NSB)×100 (SB: radioactivity when a compound is added, TB: maximum binding radioactivity, NSB: nonspecific binding radioactivity) was calculated to obtain a binding inhibitory rate under the presence of 1,000 nM of each test substances. The IC50 values were calculated by using GraphPad Prism software.

Structures can show the parent of a compound that is named as a salt.

Take `CCCC(CCC)c1cccc2nc(Nc3c(C)cc(Br)cc3OC)n(C)c12` [Example 1, N-(4-Bromo-2-methoxy-6-methylphenyl)-1-methyl-7-(1-propylbutyl)-1H-benzimidazol-2-amine Hydrochloride]: the inhibition at 1 µM in data set [1] is more than 80%.

For the molecule `CCCC(CC)c1nccc2nc(Nc3c(C)cc(Br)cc3OC)n(C)c12` (stereo not shown) [Example 9, N-(4-Bromo-2-methoxy-6-methylphenyl)-4-(1-ethylbutyl)-3-methyl-3H-imidazo[4,5-c]pyridin-2-amine], the inhibition at 1 µM in data set [1] was more than 80%.

The molecule `CCc1ccccc1-c1cccc2nc(Nc3c(C)cc(Cl)cc3OC)n(C)c12` [Example 15, N-(4-Chloro-2-methoxy-6-methylphenyl)-7-(2-ethylphenyl)-1-methyl-1H-benzimidazol-2-amine] registered a concentration for half-maximal inhibition (IC50) in data set [1] of 10 to 50 nM.

Regarding `CNCc1ccccc1-c1cccc2nc(Nc3c(C)cc(Cl)cc3OC)n(C)c12` [Example 64, N-(4-Chloro-2-methoxy-6-methylphenyl)-1-methyl-7-{2-[(methylamino)methyl]phenyl}-1H-benzimidazol-2-amine], the inhibition at 1 µM in data set [1] is more than 80%.

`CCc1cc(CC)n(-c2cccc3nc(Nc4c(C)cc(Br)cc4OC)n(C)c23)n1` [Example 66, N-(4-Bromo-2-methoxy-6-methylphenyl)-7-(3,5-diethyl-1H-pyrazol-1-yl)-1-methyl-1H-benzimidazol-2-amine]: in data set [1], the IC50 lay in the range of 10 to 50 nM.

Consider `COc1cc(Br)cc(C)c1Nc1nc2cccc(-n3c(C)ccc3C)c2n1C` [Example 69, N-(4-Bromo-2-methoxy-6-methylphenyl)-7-(2,5-dimethyl-1H-pyrrol-1-yl)-1-methyl-1H-benzimidazol-2-amine], for which the inhibition at 1 µM in data set [1] was more than 80%.

For the molecule `CCC(CC)c1ccc(Cl)c2nc(Nc3c(C)cc(Br)cc3OC)n(C)c12` [Example 77, N-(4-Bromo-2-methoxy-6-methylphenyl)-4-chloro-7-(1-ethylpropyl)-1-methyl-1H-benzimidazol-2-amine], the melting point was in the range of 218 to 220 °C. Moreover, in data set [1], the inhibition at 1 µM is more than 80% and the IC50 fell in the range of 10 to 50 nM.

In the case of `CCC(CC)c1ccc(Cl)c2nc(Nc3ccc(Cl)cc3Br)n(C)c12` [Example 84, N-(2-Bromo-4-chlorophenyl)-4-chloro-7-(1-ethylpropyl)-1-methyl-1H-benzimidazol-2-amine], the melting point was 136 to 138 °C. Besides, the inhibition at 1 µM in data set [1] is more than 80%.

As to `CCC(CC)c1ccc(C)c2nc(Nc3c(C)cc(Cl)cc3OC)n(C)c12` [Example 101, N-(4-Chloro-2-methoxy-6-methylphenyl)-7-(1-ethylpropyl)-1,4-dimethyl-1H-benzimidazol-2-amine], in data set [1], the inhibition at 1 µM is more than 80% and the IC50 is less than 10 nM.

As for `CCC(CC)c1ccc(Cl)c2nc(Nc3c(C)cc(Cl)cc3OC)n(CCO)c12` [Example 103, 2-[4-Chloro-2-[(4-chloro-2-methoxy-6-methylphenyl)amino]-7-(1-ethylpropyl)-1H-benzimidazol-1-yl]ethanol], in data set [1], the inhibition at 1 µM was more than 80%.

`CCC(CC)c1ccc(OC)c2nc(Oc3c(C)cc(Cl)cc3Cl)n(C)c12` [Example 145, 2-(2,4-Dichloro-6-methylphenoxy)-7-(1-ethylpropyl)-4-methoxy-1-methyl-1H-benzimidazole] gave a melting point of 130 to 131 °C. In addition, the IC50 in data set [1] was less than 10 nM.
